Publication PMC7762498, “Demethoxycurcumin analogue DMC-BH exhibits potent anticancer effects on orthotopic glioblastomas” (Aging (Albany NY), 2020)
Read-outs that look alike come from different tables or passages of the source.

Assays:
SHG-44 glioma cells = assay: MTT cell viability assay, SHG-44; type: cell-based; conditions: Homo sapiens, SHG-44 cells, 72 hours
Protocol: (§1) To investigate the cytotoxicity of DMC-BH on glioma cells (Figure 1A), we used an MTT assay to assess viability changes in SHG-44, C6, U251, U87, A172 and primary glioma cells treated with various concentrations of DMC-BH for 24, 48 or 72 hours (Figure 1B–1H). […] U251 and SHG-44 cells were more sensitive to DMC-BH. We then used the human glial cell line, HEB, to evaluate the toxicity of DMC-BH in normal cells. […] DMC-BH was not toxic to normal cells.
(§2) The human GBM U87-luc cell line was purchased from the Shanghai Sunbio Medical Biotechnology Co., Ltd. (Shanghai, China). Cells were cultured in DMEM supplemented with 10% fetal bovine serum (FBS) and maintained in an incubator at 37° C and 5% CO2. After cells were routinely passaged at 2- to 3-day intervals, animal experiments were carried out when the cells entered exponential growth phase. Rat C6, human SHG-44, U87, A172 and U251 glioma cells were obtained from the Shanghai Institute of Cell Biology, Chinese Academy of Sciences (Shanghai, China). Primary glioma cells were preserved by our laboratory from previous studies. […]
(§3) Glioblastoma cells were seeded into 96-well plates and exposed to vehicle (PBS) or different concentrations of DMC-BH for 24, 48 or 72 hours. Cell viability was measured using an MTT assay and was expressed as a ratio to the absorbance value of the control cells at 570 nm.

U87 glioma cells = assay: MTT cell viability assay, U87; type: cell-based; conditions: Homo sapiens, U-87 MG, 72 hours
Protocol: as §1, §2, §3

A172 glioma cells = assay: MTT cell viability assay, A172; type: cell-based; conditions: Homo sapiens, A 172, 72 hours
Protocol: as §1, §2, §3

primary glioma cells = assay: MTT cell viability assay, primary glioma cells; type: cell-based; conditions: 72 h
Protocol: as §1, §2, §3

in vivo = conditions: female, ICR, mouse, ip
ICR mice = assay: in vivo; conditions: mouse; for Mortality rate (%) / No. of dead mice: female, ICR, 14 days
CYP-450 = assay: CYP-450-related metabolism; type: in vitro ADME
[1] = Octanol-water partition coefficient; type: physicochemical
Excerpt: To determine whether DMC-BH inhibits the growth of glioma in the brain, we assessed its octanol-water partition coefficients and BBB penetrability. The hydrophobic parameters (logP) of DMC-BH and DMC were estimated under physiological as well as in acidic and basic conditions. The logP values for DMC-BH were negative at pH 2.5 and pH 9.0, as it was an amphoteric compound. At low pH or high pH conditions, DMC-BH occurred in the form of salts, and its logP values became negative due to better solubility.
Figure 2 Octanol-water partition coefficients (logP) and BBB penetrability of DMC-BH. (A) The logP was defined as log(Coctanol/Cwater). The amount of the compound in the water phase was determined spectrophotometrically, and the amount in the octanol phase was obtained by subtracting the supernatant concentration from the total concentration. (B) The BBB penetrability was defined as a brain-to-plasma AUC(time point) ratio. Values are expressed as the means ± SEM of 3 independent experiments.
The partition coefficient (P) between n-octanol and water was determined. The buffer mixture (0.05 M citric buffer, pH 2.5; 0.05 M acetic acid buffer, pH 5.5; 5 mM PBS, pH 7.4; or 0.05 M bicarbonate buffer, pH 9.0) and n-octanol was pre-equilibrated overnight at room temperature. After addition of the DMC or DMC-BH, the mixture was vortexed for 10 minutes and incubated at room temperature for an additional 15 minutes before centrifugation at 1000 g for 5 minutes. The amount of the compound in water phase was determined spectrophotometrically using standard curves, and the amount in lipid phase was obtained by subtracting the supernatant concentration from the total concentration, measured before mixing of the phases. P was determined according to P = (noct/Voct)/(nw/Vw), where n denotes the number of compound moles, V is the volume and the subscripts oct and w refer to n-octanol and aqueous phase, respectively.

[2] = system: glioblastoma multiforme (GBM) patient derived tumors; assay: Patient-derived tumor xenograft (PDTX) model; type: in vivo, mice
Excerpt: In recent years, PDTX models have been used to mimic human tumors. These models are more clinically relevant than cell line-based xenograft models. Thus, we performed an in vivo study in a PDTX tumor model by implanting human glioma samples from a patient donor into B-NDG mice (Figure 7A).
Figure 7 In vivo anti-tumor activity of DMC-BH in the PDTX tumor model. (A) A scheme illustrating the process of creating the patient-derived tumor model. (B) Tumor growth curves of mice after treatment with 7.5 mg/kg, 15 mg/kg or 30 mg/kg DMC-BH or 20 mg/kg TMZ. (C) Average tumor weight at day 21 after different treatments. (D) Quantification of the Ki67-positive area in different treatment groups. (E) Representative H&E-stained tumor slices and Ki67 immunofluorescence labeled tumor tissue sections from different treatments groups. The data are shown as mean ± SD (n = 6).
Surgically resected human glioma tissue was obtained from a cancer patient (#0407002) following an approved Nanjing Medicinal University Institutional Review Board protocol. Within 2 hours of surgical resection, tumor tissues were cut into 1-2 mm fragments and implanted into SCID mice (B-NDG, 6 weeks old, female) using a surgical procedure approved by Nanjing Medicinal University Institutional Animal Care and Use committee. After surgery, tumor growth in the mice was monitored by palpating the abdomen twice per week. Tumors grew to 5-10 mm in diameter in about 8-10 weeks. The SCID mice bearing PDTX tumors were sacrificed, and tumor fragments of 1 to 2 mm in size were implanted into 6-week-old female SCID mice. Over 60% of the mice experienced tumor growth in approximately 6 weeks.

[3] = B-NDG mice, DMC-BH 7.5, 15 or 30 mg/kg, TMZ 20 mg/kg

## COc1cc(C=CC(=O)CC(=O)C=Cc2ccc(O)c(CN3CCCC3)c2)ccc1O [DMC-BH, 1-[4-Hydroxy-3-(pyrrolidin-1-ylmethyl)phenyl]-7-(4-hydroxy-3-methoxyphenyl) hepta-1,6-diene-3,5-dione]
SHG-44 glioma cells
  IC50: 3.08 µM
U87 glioma cells
  IC50: 4.77 µM
A172 glioma cells
  IC50: 5.68 µM
Primary glioma cells; primary glioma cells sample 1, 72 hours
  IC50: 8.05 µM
Primary glioma cells; primary glioma cells sample 2, 72 hours
  IC50: 4.61 µM
In vivo
  LD50 at 14 days: 48.1 mg/kg
ICR mice; 5 mg/kg
  Mortality rate (%): 0.0%
  No. of dead mice: 0
ICR mice; 10 mg/kg
  Mortality rate (%): 0.0%
  No. of dead mice: 0
ICR mice; 20 mg/kg
  Mortality rate (%): 0.0%
  No. of dead mice: 0
ICR mice; 30 mg/kg
  Mortality rate (%): 10.0%
  No. of dead mice: 1
ICR mice
  abnormalities compared to the control mice: no abnormalities
CYP-450
  CYP-450-related metabolism: low
[1]; n-octanol/water (buffer), pH 7.4, n-octanol/water, read-out: logP
  logP: 3.26
[1]; pH 2.5, n-octanol/water
  logP: negative
[1]; pH 9.0, n-octanol/water
  logP: negative
[2]; [3]
  tolerability in PDTX model: tolerated
  tumor growth in PDTX model: significant tumor regression
[2]; PDTX tumor, 20 mg/kg, compared with the control tumor
  number of Ki67-positive cells in tumor: marked decrease
